This is an account of results in patent publication US10774080B2, “Pyrimidine compound as JAK kinase inhibitor” (THERAVANCE BIOPHARMA R&D IP, LLC, priority 2017, dated 2020).

Molecules are shown by their SMILES. “Also recorded” adds a separate entry of the source. Where two headings read alike, the source gives them in different places.

A short description of data set [1]: Assay 5: rat pharmacokinetics. The class given is in vivo, male Sprague Dawley rats. To be noted: male, Sprague Dawley. Here is the method: Assay 5: Rat Pharmacokinetics Assay The objective of this study was to assess the pharmacokinetics of compound (I) in plasma following single oral (PO, n=3) or intravenous (IV, n=2) administration to male Sprague Dawley rats. Three male Sprague Dawley rats were administered a single IV dose of compound (I) (1.0 mg/kg in 5% DMSO+20 mM Citrate buffer pH4) via a jugular vein catheter or a single PO dose of 5 mg/kg via oral gavage (5.0 mg/kg in 1% HPMC with 0.1% Tween80). At 0.25, 0.5, 1, 2, 4, 6, and 24 hours after dose administration blood samples were drawn via jugular vein catheter into EDTA tubes and maintained chilled on ice prior to centrifugation (12,000 rpm, 4 min, 4° C.). Aliquots of plasma were transferred to cluster tubes and stored frozen (−80° C.) prior to bioanalysis. Plasma samples were vortexed prior to transferring a 50 μL aliquot of sample to a 96-well plate and extracted with 200 μL acetonitrile containing an internal standard. Following extraction, samples were centrifuged for 10 min at 3700 RPM (2809×g). The supernatant was transferred to a new 96-well plate and then diluted in 0.2% formic acid in water (3-fold dilution). For all samples, 10 μL was injected onto a Waters Xbridge (C18 30×2.1 mm) column with a flow rate of 0.80 mL/min. Mobile phase A consisted of 0.2% formic acid in water and mobile phase B 0.2% formic acid in acetonitrile. Plasma levels of compound (I) were determined by LC-MS-MS analysis. Standard PK parameters were determined using Phoenix WinNonlin, (Certara Inc.).

Data set [2] deals with TPA-induced increase in ear thickness. Description: Assay 10: in vivo TPA-induced acute dermatitis model in mice. The arrangement: species or system female Balb/c mice. Here is the method: Assay 10: In Vivo TPA-Induced Acute Dermatitis Model in Mice
The objective of this assay is to assess the anti-inflammatory effect of compound (I), in a model of acute dermatitis being studied for cutaneous inflammatory conditions such as atopic dermatitis (Dong et al., J Pharmacol Exp Ther, 2013, 344, 436-446).
Topical dermal application of phorbol ester TPA in mice causes an inflammatory response that is characterized by edema and neutrophil influx at the early phase (2-24 h) and by epidermal cell proliferation at the later phase (24-48 h) (Griffiths et al., Agents and Actions, 1988, 25, 344-351). In this model, female Balb/c mice were topically administered with 20 μl/ear of either vehicle or TPA (2.5 μg). For the solution formulation, vehicle (1:7 DMSO:Acetone) or test compound was topically applied 30 min before and 15 min after TPA administration. For the ointment formulation, vehicle or compound (I) (0.5% strength) was applied 30 min before TPA. The degree of inflammation was assessed as the change in ear thickness at 6 hours after TPA application.

A short description of data set [3]: Assay 8: human skin permeability assay (MedFlux-HT flow-through diffusion cell). The class given is in vitro ADME. To be noted: 0.5% Ointment. The procedure:
Assay 8: Human Skin Permeability Assay The objective of this experiment was to assess the percutaneous absorption of test compounds through human skin following topical application. The model uses excised human skin mounted in specially designed diffusion chambers (static or flow-through) that allow the skin to be maintained at a temperature and humidity that match real use conditions. The formulation was applied to the surface of the skin and the penetration of the drug is measured by monitoring its rate of appearance in the receptor solution flowing underneath the skin samples. This in vitro system allows carefully control of many of the potential variables involved in topical application, such as dosing volumes, humidity, temperature, drug stability, and skin thickness. […] This system was developed to specifically minimize the dosing area during in vitro experiments, thus allowing more dosing replications within the limited surface area of ex vivo human skin. The diffusion cells were placed in cell warming supports and heated using a circulating water bath in order to maintain the skin surface temperature at approx. 32° C. The cells were connected to multi-channel peristaltic pumps and maintained at a flow-rate of approximately 10 μL/min (600 μL/hr) for a continuous flow of receiver fluid directly under the skin. Following continuous sampling over 24 h, samples were assayed for test compound levels by LC-MS/MS. The test compound was detected in receiver fluid from […] following application of test ointment formulation (n=5). The ointment used is disclosed in Assay 7. The receiver fluid was PBS with 0.1% Brij.

The test system of the next data set is CXCL10 gene expression. Nature of the data set: Assay 7: ex vivo JAK PD assay, freshly excised human skin, CXCL10. To be noted: 0.5% ointment, about 40 hours continuous exposure, Th1-skewed stimulation (TNFα, IFNγ, IL-12), vs vehicle. The procedure:
(§1) Assay 7: Ex Vivo JAK Pharmacodynamic (PD) Assay Using Human Freshly Excised Skin An ex vivo JAK pharmacodynamics (PD) assay was conducted using human isolated skin tissue. The PD assay used fresh human skin (dermatome of 750 μm thickness) that was mounted in static Franz cells with a surface area of ˜0.5 cm^2. The receiver chambers of the Franz cells were filled with warm (37° C.) cornification media and placed in an incubator at 37° C. The skin was topically dosed with 10 μL ([…]) of compound (I) or vehicle and was left undisturbed overnight (˜24 hours). The next day, with no re-application of the test compound or vehicle, the media was replaced with a Th1-skewed stimulation cocktail consisting of TNFα, IFNγ and IL-12. The skin was left undisturbed for an additional 16 hours, and then harvested and processed for RNA extraction and qPCR of biomarkers: CXCL10, CCL2. GAPDH was used as an internal standard. The compound (I) was formulated in an ointment formulation at 0.5% strength. A total of three skin donors (tested in quadruplicates/sample/treatment) were used. Treatment effect was calculated as the percent increase or decrease in stimulation compared to the vehicle group. [table]

The nature of data set [4]: Assay 7: epidermal and dermal deposition in freshly excised human skin. The class given is in vitro ADME. To be noted: 0.5% ointment, about 40 hours continuous exposure. The procedure: as §1
For data set [5] the following is noted: Hanford, minipig, in vivo.
Protocol: Assay 6: Dermal Pharmacokinetics in Hanford Mini-Pig Skin
The objective of this Study was to determine the epidermal, dermal and plasma pharmacokinetics of compound (I) following a 24 hour exposure to intact Hanford mini-pig skin.
Twenty-four hours prior to dosing, the hair was shaved from the back of 10-15 kg Hanford mini-pigs exposing an area of at least 700 cm^2 (about 10% of body surface). At time zero, compound (I) was applied to the back of the mini-pigs at a dose of 25 μL/cm^2. The skin was covered with an adhesive cover to prevent loss of compound to the cage or bedding. Following 24 h exposure, the backs were gently washed with soap and water to remove non-absorbed drug and patted dry. Immediately following this washing, blood was drawn by venipuncture from the mini-pigs. The outer skin (stratum corneum) was then removed by adhesive tape stripping. Upon exposure of the epidermis a 0.5 cm punch biopsy was taken. The epidermis and dermis were quickly separated, weighed and snap frozen. Similar samples were taken at 94 h, and 168 h (7 days) post-dosing in mini-pigs. Epidermis and dermis samples were homogenized in 1:10 (w/v) water using a Covaris ultrasonic homogenizer. Samples were extracted in 3 volumes of acetonitrile and quantified against a standard curve via LC-MS analysis.

Take `CCS(=O)(=O)N1[C@@H]2CCC[C@H]1C[C@H](N(C)c1nc(CO)c(F)c(Nc3cc(C)[nH]n3)n1)C2` [Compound (I), (2-(((1R,3s,5S)-9-(ethylsulfonyl)-9-azabicyclo[3.3.1]nonan-3-yl)(methyl)amino)-5-fluoro-6-((5-methyl-1H-pyrazol-3-yl)amino)pyrimidin-4-yl)methanol]: the clearance (in general, a measure of how efficiently the substance is removed, as volume per time) in data set [1] (plasma, rat, IV (1 mg/kg)) was 59 mL/min/kg. Moreover, the Vd in data set [1] (plasma, rat, IV (1 mg/kg), read-out: Vdss) worked out at 1.1 L/kg. Also, the bioavailability – broadly, dose-corrected exposure relative to a reference, in per cent – in data set [1] (plasma, rat, PO (5 mg/kg)) turned out to be 7.7%. In addition, the AUC(0-t) (as a rule, exposure summed from dosing to a finite time, without extrapolation to infinity) in data set [1] (rat plasma, IV (1 mg/kg)) was 291 ng·h/mL; in data set [1] (rat plasma, PO (5 mg/kg)), 112 ng·h/mL. The Cmax (in general, the peak of the concentration-time curve) in data set [1] (rat plasma, IV (1 mg/kg)) was 907 ng/mL; in data set [1] (rat plasma, PO (5 mg/kg)), 77 ng/mL. In data set [1] (rat plasma, IV (1 mg/kg), read-out: T½ (converted)), the half-life was 1.34 h. The “Inhibition of TPA-induced increase in ear thickness (mean % inh ± SEM (n))” value in data set [2] is given as 34.9%; in data set [2] (30 μg/ear dosed as solution, 6 hours after TPA), 6.6% ± 1.1%; in data set [2] (100 μg/ear dosed as solution, 6 hours after TPA) it was 2.4% ± 0.7%; in data set [2] (300 μg/ear dosed as solution, 6 hours after TPA), 35.5% ± 3.1%; in data set [2] (1000 μg/ear dosed as solution (highest dose), 6 hours after TPA), 54.8 ± 2.6%; in data set [2] (0.5% Ointment, 20 μl/ear, 30 min before TPA, 6 hours after TPA) it was 34.9% ± 3.3% (12). Moreover, in data set [2] (dosed as a solution), the “effect on TPA-induced increase in ear thickness (in words)” value was “dose-dependent effect; also recorded: dose dependent manner”. The “permeability in human skin assay (in words)” value is reported as “good permeability” in data set [3] and “adequate permeability” in data set [3] (listed as compound (I)). Moreover, in data set [3] (n=5, receiver fluid PBS with 0.1% Brij), the “MedFlux Permeability, flux permeating through 1 cm2 of human skin (Mean)” value amounted to 39.1 ng/cm2/sec. In addition, in the data set with CXCL10 gene expression, the “PD-% Inhibition (mean ± SD) CXCL10” value amounted to 90.1%. For the same compound, the “PK-Tissue concentration (μM, mean ± SD) Dermis” value in data set [4] came out at 6.1 ± 5.3 µM. Further, the “PK-Tissue concentration (μM, mean ± SD) Epidermis” value in data set [4] is 116.5 ± 91.9 µM. Also, the “plasma exposure (below the limit of quantitation)” value in data set [5] was less than 0.001 µg/mL.
